Test results published in US20260132158A1, “PHENYL OXY AMIDE KINASE INHIBITORS” (THE TRANSLATIONAL GENOMICS RESEARCH INSTITUTE, priority 2022, published 2026).

Biological target: T1, RON Kinase (Homo sapiens, UniProt Q04912)
T1 construct: purchased Promega V8071
Experiment: RON Kinase ADP Glo Assay
Type: biochemical
Conditions: ratio cMET IC50 / RON IC50
Procedure: RON Kinase ADP Glo Assay • Assay Buffer: 40 mM Tris-HCl, pH7.5, 20 mM MgCl2, 0.1 mg/mL BSA • RON Kinase+ADP-Glo™ Assay (Promega #: V8071) • Substrate: […] Axltide • Enzyme: 100 ng/μL RON Kinase • ATP: 10 mM • ADP-Glo™ Reagent • Kinase Detection Reagent • 384-well white assay plates Kinase assay was done by following instructions from the kit. Briefly, a ten-point serial dilution of compound was prepared at 5× in assay buffer with the final assay concentrations starting at 300 nM, 100 nM, 30 nM, 10 nM . . . 0 nM. Enzyme, substrate, and ATP were used at 25 ng, 2000 ng, and 25 µM, respectively. The assay plate was set up by mixing the components in a total reaction volume of 10 μL per well. The plate was centrifuged gently for 10 seconds and incubated at room temperature (RT) for 60 minutes in the dark. The ADP-Glo Reagent and kinase detection reagent were added and incubated as recommended. The reaction was quantified by measuring luminescence on the Perkin Elmer Envision plate reader.

T1 sequence (Q04912 25-1400): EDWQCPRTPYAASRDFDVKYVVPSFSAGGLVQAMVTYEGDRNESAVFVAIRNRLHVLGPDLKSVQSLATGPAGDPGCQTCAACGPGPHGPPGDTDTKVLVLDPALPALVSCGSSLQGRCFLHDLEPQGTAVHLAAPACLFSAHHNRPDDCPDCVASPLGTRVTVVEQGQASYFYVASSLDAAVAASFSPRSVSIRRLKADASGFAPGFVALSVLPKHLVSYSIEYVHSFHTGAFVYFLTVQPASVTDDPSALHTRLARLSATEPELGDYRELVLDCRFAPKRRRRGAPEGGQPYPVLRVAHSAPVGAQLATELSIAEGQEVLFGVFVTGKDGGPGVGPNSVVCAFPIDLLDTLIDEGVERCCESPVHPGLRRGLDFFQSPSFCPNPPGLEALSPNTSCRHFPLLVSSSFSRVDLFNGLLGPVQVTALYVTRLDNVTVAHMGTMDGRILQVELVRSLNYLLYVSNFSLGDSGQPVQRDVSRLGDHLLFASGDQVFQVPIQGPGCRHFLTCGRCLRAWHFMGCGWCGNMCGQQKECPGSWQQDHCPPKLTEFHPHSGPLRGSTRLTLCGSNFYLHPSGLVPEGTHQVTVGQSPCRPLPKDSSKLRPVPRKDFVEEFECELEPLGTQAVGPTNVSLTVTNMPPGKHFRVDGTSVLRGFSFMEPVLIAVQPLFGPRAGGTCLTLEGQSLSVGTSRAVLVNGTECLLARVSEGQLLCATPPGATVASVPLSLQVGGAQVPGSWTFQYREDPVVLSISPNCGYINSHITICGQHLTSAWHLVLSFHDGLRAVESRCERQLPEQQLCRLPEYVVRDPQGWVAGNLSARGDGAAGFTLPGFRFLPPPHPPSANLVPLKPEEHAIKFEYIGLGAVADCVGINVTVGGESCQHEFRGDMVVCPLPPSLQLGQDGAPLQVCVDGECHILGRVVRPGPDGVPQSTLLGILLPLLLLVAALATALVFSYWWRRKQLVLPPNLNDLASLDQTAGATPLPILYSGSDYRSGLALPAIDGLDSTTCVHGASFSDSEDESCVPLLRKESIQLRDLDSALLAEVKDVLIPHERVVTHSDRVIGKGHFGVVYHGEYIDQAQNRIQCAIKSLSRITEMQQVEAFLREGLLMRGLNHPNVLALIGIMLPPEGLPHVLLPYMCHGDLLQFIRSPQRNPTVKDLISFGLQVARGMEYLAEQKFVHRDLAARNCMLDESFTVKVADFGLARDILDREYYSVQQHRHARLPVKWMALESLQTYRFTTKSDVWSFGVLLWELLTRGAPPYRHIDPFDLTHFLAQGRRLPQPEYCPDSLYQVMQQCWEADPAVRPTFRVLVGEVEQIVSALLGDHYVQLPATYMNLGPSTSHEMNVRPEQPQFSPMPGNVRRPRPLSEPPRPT

SMILES	Fold Selectivity (cMET/RON)
C=CC(=O)NC1CCCC(Nc2nccc(Oc3ccc(NC(=O)c4cnn(-c5ccc(F)cc5)c4C(F)(F)F)cc3F)n2)C1 (single isomer, unassigned) [44 (peak 1), N-(4-((2-((3-acrylamidocyclohexyl)amino)pyrimidin-4-yl)oxy)-3-fluorophenyl)-1-(4-fluorophenyl)-5-(trifluoromethyl)-1H-pyrazole-4-carboxamide]	+++ (represents a value greater than 3 up to 50)
C=CC(=O)NC1CCCC(Nc2nccc(Oc3ccc(NC(=O)c4cnn(-c5ccc(F)cc5)c4C(F)(F)F)cc3F)n2)C1 (single isomer, unassigned) [44 (peak 2), N-(4-((2-((3-acrylamidocyclohexyl)amino)pyrimidin-4-yl)oxy)-3-fluorophenyl)-1-(4-fluorophenyl)-5-(trifluoromethyl)-1H-pyrazole-4-carboxamide]	+++ (represents a value greater than 3 up to 50)
O=C(Nc1ccc(Oc2ccnc(Nc3cccc(N4CCOCC4)c3)n2)c(F)c1)c1cnn(-c2ccc(F)cc2)c1C(F)(F)F [Compound 1, N-(3-fluoro-4-((2-((3-morpholinophenyl)amino)pyrimidin-4-yl)oxy)phenyl)-1-(4-fluorophenyl)-5-(trifluoromethyl)-1H-pyrazole-4-carboxamide]	+++ (represents a value greater than 3 up to 50)
Cn1cnc(-c2cc3ncnc(Oc4ccc(NC(=O)c5cnn(-c6ccc(F)cc6)c5C(F)(F)F)cc4F)c3s2)c1 [Compound 2, N-(3-fluoro-4-((6-(1-methyl-1H-imidazol-4-yl)thieno[3,2-d]pyrimidin-4-yl)oxy)phenyl)-1-(4-fluorophenyl)-5-(trifluoromethyl)-1H-pyrazole-4-carboxamide]	+++ (represents a value greater than 3 up to 50)
O=C(Nc1ccc(Oc2ccnc3cc(Br)nn23)c(F)c1)c1cnn(-c2ccc(F)cc2)c1C(F)(F)F [Compound 4, N-(4-((2-bromopyrazolo[1,5-a]pyrimidin-7-yl)oxy)-3-fluorophenyl)-1-(4-fluorophenyl)-5-(trifluoromethyl)-1H-pyrazole-4-carboxamide]	++ (represents a value greater than 0.5 up to 3)
Cn1cc(-c2c(Oc3ccc(NC(=O)c4cnn(-c5ccc(F)cc5)c4C(F)(F)F)cc3F)ccnc2N)cn1 [Compound 5, N-(4-((2-amino-3-(1-methyl-1H-pyrazol-4-yl)pyridin-4-yl)oxy)-3-fluorophenyl)-1-(4-fluorophenyl)-5-(trifluoromethyl)-1H-pyrazole-4-carboxamide]	+++ (represents a value greater than 3 up to 50)
Cn1cc(-c2c(Oc3ccc(NC(=O)c4nnn(-c5ccc(F)cc5)c4C(F)(F)F)cc3F)ccnc2N)cn1 [Compound 6, N-(4-((2-amino-3-(1-methyl-1H-pyrazol-4-yl)pyridin-4-yl)oxy)-3-fluorophenyl)-1-(4-fluorophenyl)-5-(trifluoromethyl)-1H-1,2,3-triazole-4-carboxamide]	++ (represents a value greater than 0.5 up to 3)
Cn1cc(-c2cc3nccc(Oc4ccc(NC(=O)c5cnn(-c6ccc(F)cc6)c5C(F)(F)F)cc4F)n3n2)cn1 [Compound 7, N-(3-fluoro-4-((2-(1-methyl-1H-pyrazol-4-yl)pyrazolo[1,5-a]pyrimidin-7-yl)oxy)phenyl)-1-(4-fluorophenyl)-5-(trifluoromethyl)-1H-pyrazole-4-carboxamide]	+++ (represents a value greater than 3 up to 50)
Cn1cnc(-c2cc3nccc(Oc4ccc(NC(=O)c5cnn(-c6ccc(F)cc6)c5C(F)(F)F)cc4F)n3n2)c1 [Compound 8, N-(3-fluoro-4-((2-(1-methyl-1H-imidazol-4-yl)pyrazolo[1,5-a]pyrimidin-7-yl)oxy)phenyl)-1-(4-fluorophenyl)-5-(trifluoromethyl)-1H-pyrazole-4-carboxamide]	+++ (represents a value greater than 3 up to 50)
Cn1cc(-c2c(Oc3ccc(NC(=O)c4ccnc(-c5ccc(F)cc5)c4C(F)(F)F)cc3F)ccnc2N)cn1 [Compound 12, N-(4-((2-amino-3-(1-methyl-1H-pyrazol-4-yl)pyridin-4-yl)oxy)-3-fluorophenyl)-2-(4-fluorophenyl)-3-(trifluoromethyl)isonicotinamide]	+++ (represents a value greater than 3 up to 50)
CP(C)(=O)c1c(Oc2ccc(NC(=O)c3cnn(-c4ccc(F)cc4)c3C(F)(F)F)cc2F)ccnc1N [Compound 17, N-(4-((2-amino-3-(dimethylphosphoryl)pyridin-4-yl)oxy)-3-fluorophenyl)-1-(4-fluorophenyl)-5-(trifluoromethyl)-1H-pyrazole-4-carboxamide]	+++ (represents a value greater than 3 up to 50)
Cn1cc(-c2c(Oc3ccc(NC(=O)c4cc(-c5ccc(F)cc5)no4)cc3F)ccnc2N)cn1 [Compound 21, N-(4-((2-amino-3-(1-methyl-1H-pyrazol-4-yl)pyridin-4-yl)oxy)-3-fluorophenyl)-3-(4-fluorophenyl)isoxazole-5-carboxamide]	+ (represents a value below 0.5)
COc1cc(Nc2nccc(Oc3ccc(NC(=O)c4cnn(-c5ccc(F)cc5)c4C(F)(F)F)cc3F)n2)cc(OC)c1 [Compound 24, N-(4-((2-((3,5-dimethoxyphenyl)amino)pyrimidin-4-yl)oxy)-3-fluorophenyl)-1-(4-fluorophenyl)-5-(trifluoromethyl)-1H-pyrazole-4-carboxamide]	+++ (represents a value greater than 3 up to 50)
CP(C)(=O)c1cccc(Nc2nccc(Oc3ccc(NC(=O)c4cnn(-c5ccc(F)cc5)c4C(F)(F)F)cc3F)n2)c1 [Compound 26, N-(4-((2-((3-(dimethylphosphoryl)phenyl)amino)pyrimidin-4-yl)oxy)-3-fluorophenyl)-1-(4-fluorophenyl)-5-(trifluoromethyl)-1H-pyrazole-4-carboxamide]	+++ (represents a value greater than 3 up to 50)
CC(C)Oc1cccc(Nc2nccc(Oc3ccc(NC(=O)c4cnn(-c5ccc(F)cc5)c4C(F)(F)F)cc3F)n2)c1 [Compound 35, N-(3-fluoro-4-((2-((3-isopropoxyphenyl)amino)pyrimidin-4-yl)oxy)phenyl)-1-(4-fluorophenyl)-5-(trifluoromethyl)-1H-pyrazole-4-carboxamide]	+++ (represents a value greater than 3 up to 50)
C=CC(=O)N1CCCC(c2cccc(Nc3nccc(Oc4ccc(NC(=O)c5cnn(-c6ccc(F)cc6)c5C(F)(F)F)cc4F)n3)c2)C1 (stereo not shown) [Compound 38, N-(4-((2-((3-(1-acryloylpiperidin-3-yl)phenyl)amino)pyrimidin-4-yl)oxy)-3-fluorophenyl)-1-(4-fluorophenyl)-5-(trifluoromethyl)-1H-pyrazole-4-carboxamide]	+++ (represents a value greater than 3 up to 50)
C=CC(=O)N1CCN(CCc2cccc(Nc3nccc(Oc4ccc(NC(=O)c5cnn(-c6ccc(F)cc6)c5C(F)(F)F)cc4F)n3)c2)CC1 [Compound 43, N-[4-(2-{m-[2-(4-acryloyl-1-piperazinyl)ethyl]phenylamino}-4-pyrimidinyloxy)-3-fluorophenyl]-1-(p-fluorophenyl)-5-(trifluoromethyl)-4-pyrazolecarboxamide]	+++ (represents a value greater than 3 up to 50)
CCCN1CCN(CCc2cccc(Nc3nccc(Oc4ccc(NC(=O)c5cnn(-c6ccc(F)cc6)c5C(F)(F)F)cc4F)n3)c2)CC1 [Compound 47, N-(3-Fluoro-4-((2-((3-(2-(4-Propylpiperazin-1-Yl)Ethyl)Phenyl)Amino)Pyrimidin-4-Yl)Oxy)Phenyl)-1-(4-Fluorophenyl)-5-(Trifluoromethyl)-1H-Pyrazole-4-Carboxamide]	+++ (represents a value greater than 3 up to 50)
CC(C)N1CCN(CCc2cccc(Nc3nccc(Oc4ccc(NC(=O)c5cnn(-c6ccc(F)cc6)c5C(F)(F)F)cc4F)n3)c2)CC1 [Compound 48, N-[3-fluoro-4-(2-{m-[2-(4-isopropyl-1-piperazinyl)ethyl]phenylamino}-4-pyrimidinyloxy)phenyl]-1-(p-fluorophenyl)-5-(trifluoromethyl)-4-pyrazolecarboxamide]	++ (represents a value greater than 0.5 up to 3)
O=C(Nc1ccc(Oc2ccnc(Nc3cccc(CCN4CCN(C5CC5)CC4)c3)n2)c(F)c1)c1cnn(-c2ccc(F)cc2)c1C(F)(F)F [Compound 49, N-(4-((2-((3-(2-(4-cyclopropylpiperazin-1-yl)ethyl)phenyl)amino)pyrimidin-4-yl)oxy)-3-fluorophenyl)-1-(4-fluorophenyl)-5-(trifluoromethyl)-1H-pyrazole-4-carboxamide]	++ (represents a value greater than 0.5 up to 3)
C=CC(=O)N1CCN(C(=O)Cc2cccc(Nc3nccc(Oc4ccc(NC(=O)c5cnn(-c6ccc(F)cc6)c5C(F)(F)F)cc4F)n3)c2)CC1 [Compound 50, N-[4-(2-{m-[2-(4-acryloyl-1-piperazinyl)-2-oxoethyl]phenylamino}-4-pyrimidinyloxy)-3-fluorophenyl]-1-(p-fluorophenyl)-5-(trifluoromethyl)-4-pyrazolecarboxamide]	+++ (represents a value greater than 3 up to 50)
CP(C)(=O)c1cncnc1Oc1ccc(NC(=O)c2cnn(-c3ccc(F)cc3)c2C(F)(F)F)cc1F [Compound 54, N-{4-[5-(dimethylphosphoryl)-4-pyrimidinyloxy]-3-fluorophenyl}-1-(p-fluorophenyl)-5-(trifluoromethyl)-4-pyrazolecarboxamide]	+++ (represents a value greater than 3 up to 50)
